Assay results published in patent publication US12264163B2, “Compounds and methods for treating fibrotic pathologies” (Mayo Foundation for Medical Education and Research, priority 2019, dated 2025).
Where a name gives a salt, the structure may show the parent alone.

How the values were obtained:
[1] = system: YAP/TAZ; experiment: YAP/TAZ nuclear localization in IPF patient-derived lung fibroblasts treated with dopaminergic agonists; format: cell-based, human; conditions: 10 μM, 2 hours
Experimental: IPF patient-derived lung fibroblasts cells treated 2 hours prior to fixation with diverse dopaminergic agonists (10 μM). N=4 different patient samples. % nuclear localization of YAP/TAZ was determined using automated imaging software. Scale bar represents 100 μm.
(§1) Media was then exchanged for the indicated conditions for each experiment. […] Cells or tissue sections were incubated overnight with mouse monoclonal antibody against αSMA (Sigma-Aldrich F3777), and/or a rabbit monoclonal antibody against YAP/TAZ (Cell Signaling D24E4) diluted 1:200 in PBS with 1% BSA. Cells were then washed and exposed to flourescence-conjugated secondary antibodies (Invitrogen) diluted 1:1000 and DAPI (Thermo Fisher Scientific). Images were taken with a Cytation5 (BioTek) microscope. For scoring αSMA positive cells (FIG. 12), an observer blinded to the treatment conditions counted αSMA-positive cells using a visual threshold for bright fibrous staining; a minimum of 200 cells was counted for each condition. YAP/TAZ localization was quantified (FIGS. 6-10, 24-26, and 29-30) using Gen5 (Biotek) software. Images were taken at 4× magnification of both DAPI and YAP/TAZ staining. […] Quantification of double positive (YAP/TAZ and αSMA) cells from lung tissue sections (FIG. 17-21) was performed similarly; however separate thresholds were established for both YAP/TAZ and αSMA. A minimum of 4000 cells was quantified for each mouse.

[2] = system: αSMA; experiment: αSMA intensity (fibroblast activation) in IPF patient-derived lung fibroblasts + TGFβ, dopaminergic agonist library; format: cell-based, human; conditions: 1 μM + TGFβ, 72 hours
Experimental: as §1

Row | Compound | Nuclear localization (% of total cells) ([1]; IPF-1 patient fibroblasts) | Nuclear localization (% of total cells) ([1]; IPF-2 patient fibroblasts) | Nuclear localization (% of total cells) ([1]; IPF-3 patient fibroblasts) | Nuclear localization (% of total cells) ([1]; IPF-4 patient fibroblasts) | αSMA intensity (% of DMSO control) ([2]; IPF-1 patient fibroblasts) | αSMA intensity (% of DMSO control) ([2]; IPF-2 patient fibroblasts) | αSMA intensity (% of DMSO control) ([2]; IPF-3 patient fibroblasts) | αSMA intensity (% of DMSO control) ([2]; IPF-4 patient fibroblasts)
1 | CCCN(CCc1ccccc1)C1CCc2c(O)cccc2C1.Cl (racemic) [(±)-2-(N-phenylethyl-N-propyl)amino-5-hydroxytetralin] | 68.85 % of total cells | 60.86 % of total cells | 68 % of total cells | 56.552 % of total cells | 65.43 % of DMSO control | 52.77 % of DMSO control | 60.4844 % of DMSO control | 51.1 % of DMSO control
2 | CCCN1CCO[C@@H]2c3cc(O)ccc3OC[C@H]21.Cl (racemic) [(±)-PD 128,907•HCl, (±)-PD 128,907] | 60.13 % of total cells | 49.54 % of total cells | 78.48 % of total cells | 60.66 % of total cells | 83.68 % of DMSO control | 85.45 % of DMSO control | 94.2538 % of DMSO control | 75.15 % of DMSO control
3 | Br.C=CCN1CCc2c(cc(O)c(O)c2Cl)C(c2ccccc2)C1 (racemic) [(±)-SKF-82958•HBr, (±)-SKF-82958] | 29.15 % of total cells | 38 % of total cells | 38 % of total cells | 12.29 % of total cells | 11.78 % of DMSO control | 4.966 % of DMSO control | 2.428 % of DMSO control | 9.326 % of DMSO control
4 | NCCc1ccc(O)cc1 [4-Hydroxyphenethylamine•HCl, 4-Hydroxyphenethylamine] | 56.52 % of total cells | 45.69 % of total cells | 76.57 % of total cells | 43.3719 % of total cells |  |  |  | 
5 | Br.NC1CCc2cc(O)c(O)cc2C1 (stereo not shown) [6,7-ADTN•HBr, 6,7-ADTN] | 43.89 % of total cells | 44 % of total cells | 65.5 % of total cells | 52.65 % of total cells | 37.14 % of DMSO control | 4.182 % of DMSO control | 9.909 % of DMSO control | 4.888 % of DMSO control
6 | CCCN(CCC)[C@@H]1CCc2c(OC)cccc2[C@@H]1C.O=C(O)/C=C/C(=O)O [(+)-UH 232 maleate, (+)-UH 232] | 61.9521 % of total cells | 68 % of total cells | 71.85 % of total cells | 67.27 % of total cells | 82.91 % of DMSO control | 63.85 % of DMSO control | 85.81 % of DMSO control | 65.71 % of DMSO control
7 | NC[C@@H]1O[C@H](C23CC4CC(CC(C4)C2)C3)Cc2c1ccc(O)c2O [A-77636•HCl•H2O, A-77636] | 26.46 % of total cells | 30.88 % of total cells | 41.33 % of total cells | 37.79 % of total cells | 5.808 % of DMSO control | 0.7188 % of DMSO control | 0.06766 % of DMSO control | 12.43 % of DMSO control
8 | C=CCN1CCc2nc(N)sc2CC1.Cl.Cl [B-HT 920•2HCl, B-HT 920] | 75.68 % of total cells | 46.9 % of total cells | 64.79 % of total cells | 76.24 % of total cells | 74.98 % of DMSO control | 58.97 % of DMSO control | 70.12 % of DMSO control | 54.23 % of DMSO control
9 | CC(C)C[C@H]1C(=O)N2CCC[C@H]2[C@]2(O)O[C@](NC(=O)[C@@H]3C=C4c5cccc6[nH]c(Br)c(c56)C[C@H]4N(C)C3)(C(C)C)C(=O)N12 [Bromocriptine mesylate, Bromocriptine] | 73.03 % of total cells | 52.81 % of total cells | 64.09 % of total cells | 64.6 % of total cells |  |  |  | 
10 | CN1Cc2ccccc2[C@@H]2c3cccc4[nH]cc(c34)C[C@H]21 [CY 208-243] | 20.52 % of total cells | 39.79 % of total cells | 41.17 % of total cells | 19.82 % of total cells | 21.01 % of DMSO control | 2.28 % of DMSO control | 2.611 % of DMSO control | 9.643 % of DMSO control
11 | C=CCN1C[C@H](C(=O)N(CCCN(C)C)C(=O)NCC)C[C@@H]2c3cccc4[nH]cc(c34)C[C@H]21 [Cabergoline] | 57.02 % of total cells | 57.41 % of total cells | 45.95 % of total cells | 68.69 % of total cells |  |  |  | 
12 | CCCN(CCC)CCc1ccc(O)c(O)c1 [Dipropyldopamine•HBr, Dipropyldopamine] | 69.18 % of total cells | 74.36 % of total cells | 65.5 % of total cells | 51.82 % of total cells | 48.72 % of DMSO control | 28.11 % of DMSO control | 40.34 % of DMSO control | 25.86 % of DMSO control
13 | CCCN1CCC[C@@H]2Cc3nc(N)ncc3C[C@H]21.Cl.Cl [LY-163,502•2HCl, LY-163,502] | 73.37 % of total cells | 60.97 % of total cells | 59.43 % of total cells | 66.49 % of total cells | 88.99 % of DMSO control | 72.86 % of DMSO control | 75.3 % of DMSO control | 86.7894 % of DMSO control
14 | CN1C[C@@H](NS(=O)(=O)N(C)C)C[C@@H]2c3cccc4c3c(cn4C)C[C@H]21 [Mesulergine•HCl, Mesulergine] | 37.81 % of total cells | 45.14 % of total cells | 78.625 % of total cells | 45.14 % of total cells |  |  |  | 
15 | CCCN1C[C@H](CSC)C[C@@H]2c3cccc4[nH]cc(c34)C[C@H]21 [Pergolide mesylate, Pergolide] | 82.49 % of total cells | 69.37 % of total cells | 70.67 % of total cells | 65.58 % of total cells |  |  |  | 
16 | c1cnc(N2CCN(Cc3ccc4c(c3)OCO4)CC2)nc1 [Piribedil•2HCl, Piribedil] | 61.58 % of total cells | 85.76 % of total cells | 59.05 % of total cells | 59.64 % of total cells |  |  |  | 
17 | CCCN[C@H]1CCc2nc(N)sc2C1 [Pramipexole Dihydrochloride Monohydrate, Pramipexole] | 64.92 % of total cells | 47.65 % of total cells | 65.5 % of total cells | 58.97 % of total cells |  |  |  | 
18 | Oc1cc2c(cc1O)[C@@H](c1ccccc1)CNCC2 [SKF 38393•HBr, SKF 38393] | 69.5873 % of total cells | 47.375 % of total cells | 61.33 % of total cells | 35.79 % of total cells |  |  |  | 
